# Results published in a melting point compilation (Tetko et al.; mined from patent text by program, amines drawn as free bases though some values may be those of a salt).
row,melting point,Compound
1,340 °C,O=c1ccn(-c2c(O)c3ccc(Cl)cc3[nH]c2=O)cc1
2,176 to 178 °C,COc1ccc(-c2nc(C(=O)N3CCN(C(C)=O)CC3)sc2-c2ccc(OC)cc2)cc1
3,128 to 131 °C,COc1ccc2c(c1)CCC1C2CCC2(C)C(=O)CCC12 (stereo unspecified)
4,120 to 130 °C,O=CCOc1cccc(C(=O)O)c1
5,109 to 111 °C,CCN(C)c1nc2cc(Br)ccn2n1
6,106 to 107 °C,CCCC[C@H](NC(=O)[C@H](CC(C)C)NC(=O)c1c(F)cccc1C(F)(F)F)C(=O)CSCc1ccco1
7,54 to 56 °C,COC(=O)c1ccc(NC(=O)CC(=O)C(C)C)cc1
8,115 to 117 °C,CS(=O)(=O)Oc1cc(=O)c(OCc2ccccc2)cn1Cc1ccccc1
9,68 to 69 °C,Cc1ccc(C(=O)Nc2ccc(CN3CCN(C)CC3)c(C(F)(F)F)c2)cc1C#Cc1ccc(NC2CC2)nn1
10,89 to 91 °C,CC(=O)NC[C@H]1CN(c2ccc3c(c2)CC[C@@H](C)N3C=O)C(=O)O1
11,251 °C,Cn1ncc(C(=O)N2CCCC2)c1C(=O)Nc1ccc2nc(-c3cccnc3)nn2c1
12,33 to 35 °C,CCCC(=O)c1noc2ccccc12
13,> 240 °C,CCc1nc2c(N)nc3ccc(O)cc3c2n1C
14,98.7 to 99.7 °C,CC(=NOCCCOc1ccc(CC(=O)O)cc1)c1ccc(C(C)(C)C)cc1
15,175 to 176 °C,O=C1CCNc2c([N+](=O)[O-])cc(Cl)c(Cl)c21
16,153 to 154 °C,Cn1c2c(c3cc(O)ccc31)CC(CO)C2 (stereo unspecified)
17,145 °C,COc1nc(Cc2nn(C)c(C)c2NS(=O)(=O)C(F)(F)F)nc(OC)n1
18,114 to 116 °C,O=C(c1ccc(-c2cccs2)cc1)N1Cc2ccccc2Nc2ccccc21
19,124 to 126 °C,C=C(C1=C(CCC(=O)O)C(O)CC1O)c1ccccc1 (stereo unspecified)
20,340 to 344 °C,N#Cc1ccc2c(c1)NC(=O)C2c1ncnc2nn(C3CCCC3)cc12 (stereo unspecified)
21,129 to 131 °C,FC(F)Oc1ccc2c(Cc3c(Cl)cncc3Cl)nnc(N3CCOCC3)c2c1
22,184 to 193 °C,Nc1ccc2c(c1)COc1cc(Nc3ccc(F)cc3F)ccc1C2=O
23,130 to 134 °C,CNCc1ccc2c(c1)C(Cc1ccnc(F)c1)(Cc1ccnc(F)c1)c1ccccc1-2
24,168 to 170 °C,CNc1c([N+](=O)[O-])cnc2ccccc12

row,melting point,Compound
1,41.5 to 42.5 °C,CCc1cccc2ccc(C=O)c(OCOC)c12
2,118 to 120 °C,Cc1ccc(CC2CCC(C)(C)C2(O)Cn2cncn2)cc1 (stereo unspecified)
3,117 to 119 °C,Cc1c(SCCCn2ccnc2)ccnc1CSc1ccncc1
4,125 to 127 °C,O=c1[nH]nc(-c2ccc(Cl)cc2)o1
5,137 °C,Cc1nnc(-c2ccccc2)c2nc(OCc3ncnn3C)c(C3CCCC3)n12
6,30 to 32 °C,C=CCOc1cc(C)ccc1[N+](=O)[O-]
7,120 to 121 °C,O=C(NCCO)c1ccc(-c2cccc3cc(Cc4cccc(C(F)(F)F)c4)sc23)cc1
8,146 to 148 °C,COc1ccc(S(=O)(=O)C(C)(CCCCN2C(=O)c3ccccc3C2=O)C(=O)NO)cc1 (stereo unspecified)
9,154 to 155 °C,NC(=O)c1cc(C(O)CNCCCn2nnc3ccccc32)ccc1O (stereo unspecified)
10,155 to 158 °C,CCOC(=O)Cc1ccc(-c2cn3cccnc3n2)cc1
11,78 to 79 °C,CC(C)c1ccc(C2c3cc(N(C)C(=O)CC(C)(C)C)ccc3OC2(C)C)cc1 (stereo unspecified)
12,168 to 170 °C,CCC(=CC(CNC(=O)c1cnc2ccccc2c1)=NO)C(C)[N+](=O)[O-] (stereo unspecified)
13,162 to 163 °C,Cc1c(NC(=O)c2ccc(-c3ccc4c(c3)CCCCO4)cc2)ccc2cc(CN3CCCC3)cnc12
14,239 to 241 °C,Nc1nc(-c2ccncc2)nc2c1c([N+](=O)[O-])nn2C1CCCC1
15,207 to 210 °C,NS(=O)(=O)c1ccc(CCN2CCC(N3CCc4ccccc43)CC2)cc1
16,155 to 157 °C,O=C(O)CCC(=NO)c1ccc(-c2cccc(F)c2)cc1
17,158 to 160 °C,COc1ccc(Oc2c(OC)cc([N+](=O)[O-])c3nccc(C)c23)cc1
18,166 °C,SCCNc1nc(-c2ccccc2)c2cc(Cl)ccc2n1
19,97 to 100 °C,CCCN1CCC(=O)C2=C1COc1ccc(OC)cc12
20,162 to 164 °C,CC(=O)OCc1ccc(-c2[nH]c(-c3cccc4ccccc34)nc2C(=O)OC(C)(C)C)cc1
21,101 to 104 °C,COc1ccc(-c2nc(CCO)sc2-c2ccc(OC)cc2)cc1
22,> 268 °C,Oc1ccc(-c2ncc3ncc(-c4ccoc4)cc3n2)cc1
23,99 °C,CCCCCCOC(=O)C=Nc1cc(Cl)ccc1C(=O)O
24,105 to 107 °C,CC=Cc1cccc2c(=O)c(C)c(-c3ccc(C(C)C)cc3)oc12

row,melting point,Compound
1,70 to 71 °C,Cc1cccc(CN2CCCN(C)C(=O)[C@H]2NC(=O)OCc2ccccc2)c1
2,214 to 216 °C,C=CCOc1cc(C(O)(C(F)(F)F)C(F)(F)F)cc2c(C)cc(=O)[nH]c12
3,89 to 94 °C,CON=C(C(=O)OC)c1ccccc1C#CC(=O)c1ccccc1
4,99 to 100 °C,C[C@@H]1C(=O)c2ccccc2O[C@H]1c1ccccc1 (relative stereo)
5,182 to 185 °C,CN(CCN(C)c1nc2ccccc2n1Cc1ccc(F)cc1)C(=O)OC(C)(C)C
6,153 to 154 °C,COC(OC)C1(C)CN=C(c2cc3cccc(N(C)S(=O)(=O)c4cccs4)c3[nH]2)S1 (stereo unspecified)
7,116 to 118 °C,CCCCn1ncc(/C=C(\Cc2cc3c(cc2OC)CCO3)C(=O)O)c1-c1ccc(Cl)cc1OCc1ccccc1C(=O)O
8,104 to 106 °C,CCOC(=O)CC(NC(=O)c1ccc(OC)cc1)C(=O)c1ccco1 (stereo unspecified)
9,> 250 °C,Cc1c(C(=O)O)nc2c(=O)[nH]c3ccc(-n4ccnc4)cc3n12
10,49 to 52 °C,CCCCC(C)c1cc(O)c2c(c1)OC(C)(C)CC2C1=CCN(Cc2ccc3ccccc3c2)CC1 (stereo unspecified)
11,249 to 250 °C,CN1CCCN(C)P1(=O)Cc1ccc(NC(=O)C2=Cc3cc(-c4ccccc4)ccc3CC2)cc1
12,212 to 215 °C,CSc1ccc(-n2c(-c3cccnc3)nc(SC)c(C#N)c2=O)cc1
13,117 to 119 °C,Ic1cnc(-c2cccs2)s1
14,189 to 190 °C,CCCCOc1nc(N)c2[nH]c(=O)n(CCCCN(CCN3CCOCC3)Cc3cccc(CC(=O)OC)c3)c2n1
15,87 to 88 °C,COC(=O)c1cc2c(C)ccc(C)c2n1OC(C)=O
16,96 to 98 °C,OCC1OC(n2c(Br)nc3c(NCc4ccccc4)ncnc32)C(O)C1O (stereo unspecified)
17,80 to 82 °C,CC(C)(C)OC(=O)NCC(=O)Nc1ccccc1OCc1ccccc1
18,120 to 122 °C,C#CCNC(=O)N1CC(Oc2ccc(Cl)cc2)C1
19,134 to 135 °C,CC(CNc1nc2ccccc2o1)C(=O)NCCCN(C)Cc1ccc(Cl)c(Cl)c1 (stereo unspecified)
20,73 °C,Cc1c(CC=CCCC(=O)O)cccc1C(=O)c1ccc(Cl)cc1
21,187 to 189 °C,C=C(C)Cn1c(=O)n(C)c(=O)c2cn(Cc3cccc4ccccc34)nc21
22,199 to 200 °C,CCOCc1nc2c(N)nc(C)c(C)c2n1CCCC(N)=O
23,60 °C,CCC(=O)N1C(=O)OC(C)(C)[C@H]1c1ccccc1
24,182 to 184 °C,O=c1cc(CBr)c2ccc(O)cc2o1

row,melting point,Compound
1,210 to 213 °C,CC1(C)CC(=O)c2c(NCc3ccccn3)sc(-c3cc[nH]n3)c2C1
2,177 to 178 °C,Cc1oc(-c2ccccc2)nc1COc1ccc2cc(CCc3nnn[nH]3)oc2c1
3,203 to 206 °C,O=C(O)C=CC=Cc1cc(O)c(O)cc1Cl
4,196 to 198 °C,"Cc1cccc2c3c(n(Cc4ccc(Cl)cc4)c12)C(CC(=O)O)CCC3 (single isomer, unassigned; (-))"
5,128 to 130 °C,Nc1ccc(Oc2c(Cl)cc(C(F)(F)F)cc2Cl)cc1
6,166 to 168 °C,CCOC(=O)c1c(O)c2cnc(SC)nc2n(C)c1=O
7,216 to 218 °C,Cn1nc(C(F)(F)F)c(C(=O)O)c1N
8,51 °C,CC(C)(C)c1ncc(OCc2ccccc2)c(Cl)n1
9,106 to 107 °C,OCc1cnoc1-c1ccc(C(F)(F)F)cc1
10,198 to 200 °C,COc1ccc(N2CCOCC2)c2sc(NC(=O)N(C)C3CCCCCC3)nc12
11,203 to 204 °C,CCOC(=O)c1csc(NC(=O)c2cccc(C#N)c2)n1
12,182 to 183 °C,CCOC(=O)C(=O)Nc1ccc(Cl)c(C#N)c1
13,> 78 °C,CCCCc1nn(-c2ccc([N+](=O)[O-])cc2C(F)(F)F)c(=O)n1Cc1ccc(-c2ccccc2S(=O)(=O)NC(C)(C)C)cc1
14,190 to 191 °C,CCCCCCCCCCOC(=O)C1=C(C)NC(N)=C(C(=O)OCC)C1c1cccc([N+](=O)[O-])c1 (stereo unspecified)
15,140 to 143 °C,CCOC(=O)COc1cc(S(C)(=O)=O)ccc1C(=O)NCc1ccc(Br)cc1F
16,127 to 128 °C,COc1ccc2c(n1)c(CC[N+](=O)[O-])c1n2Cc2ccccc2-1
17,105 to 107 °C,O=C(O[C@H]1Cc2c(O)cc(O)cc2O[C@@H]1c1ccc(O)c(O)c1)c1cc(O)c(O)c(O)c1
18,141 to 145 °C,CC1(C2CCC3C4CCC5CC=CCC5(C)C4C(O)CC32C)OCCO1 (stereo unspecified)
19,177 °C,C=C(COCC(=C)C(=O)O)C(=O)O
20,208 to 210 °C,CCCC(=O)NC1=CC(=O)c2ccc(C=O)nc2C1=O
21,113 to 114 °C,NC(=O)CCCCC(=O)c1ccccc1
22,112 °C,COCC1(C)CCCOc2cc(C#Cc3ccc(C(=O)O)cc3)ccc21 (stereo unspecified)
23,98 to 100 °C,CCn1c(C)c(C2(N(c3ccccc3)c3ccccc3)OC(=O)c3nccnc32)c2ccccc21 (stereo unspecified)

row,Compound,melting point
1,C(#Cc1cnc2ccccc2c1)CCN1CC=C(c2ccccc2)CC1,94.3 to 95.8 °C
2,Fc1ccc(-c2coc(-c3cn([C@H]4CN5CCC4CC5)nn3)c2)cn1,210 °C
3,CN1Cc2cccnc2C(N2CCN(C(=O)Cc3ccncc3)CC2)c2ccc(Cl)cc21 (stereo unspecified),83 to 87 °C
4,CCOP(=O)(OCC)OC(=Cc1nccn1C)C(F)(F)F,54 to 64 °C
5,CNC1=Nc2ccsc2C(c2ccccc2)=NC1,223 to 227 °C
6,Cc1cc(NC(=O)C(C)(O)COc2ccc(CCCCl)cc2)ccc1[N+](=O)[O-] (stereo unspecified),110 to 112 °C
